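Values below derive from 48-hour exposures of cells grown in 96-well plates, with endpoints linearly interpolated between the two concentrations bracketing the appropriate inhibition level. GI50: concentration for 50% inhibition of growth.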 Active and inactive are the calls of the source. Rule as the data show it: active = GI50 up to about 1.1 µM and inactive = higher.
Legend:
Test in all cases: NCI anticancer screen, dose series, 48 h
CCRF-CEM = system: CCRF-CEM
IGROV-1 = system: IGROV-1
OVCAR-8 = system: OVCAR-8
HL-60 = system: HL-60
LXFL 529 = system: LXFL 529
NCI-H226 = system: NCI-H226
HCT-15 = system: HCT-15
CAKI-1 = system: CAKI-1
NCI-H23 = system: NCI-H23
U-251 = system: U-251
KM-20L2 = system: KM-20L2
XF498 = system: XF498
SNB-75 = system: SNB-75
HOP-92 = system: HOP-92
SF-268 = system: SF-268
KM12 = system: KM12
SK-MEL-5 = system: SK-MEL-5
SNB-19 = system: SNB-19
A498 = system: A498
SF-295 = system: SF-295
K562 = system: K562
UO-31 = system: UO-31
NCI-H460 = system: NCI-H460
OVCAR-5 = system: OVCAR-5
LOX IMVI = system: LOX IMVI
HCC 2998 = system: HCC 2998
TK-10 = system: TK-10
MOLT-4 = system: MOLT-4
Malme-3M = system: Malme-3M
OVCAR-3 = system: OVCAR-3
RPMI-8226 = system: RPMI-8226
COLO 205 = system: COLO 205
NCI-H522 = system: NCI-H522
DLD-1 = system: DLD-1
SK-MEL-2 = system: SK-MEL-2
DMS-114 = system: DMS-114
SK-OV-3 = system: SK-OV-3
EKVX = system: EKVX
UACC-62 = system: UACC-62
UACC-257 = system: UACC-257
SF-539 = system: SF-539
HT-29 = system: HT-29
RXF 393 = system: RXF 393
HOP-62 = system: HOP-62
ACHN = system: ACHN
A549 = system: A549
SK-MEL-28 = system: SK-MEL-28
M14 = system: M14
HCT-116 = system: HCT-116
HOP-18 = system: HOP-18
SNB-78 = system: SNB-78
786-0 = system: 786-0
SR = system: SR
SN12C = system: SN12C
M19-MEL = system: M19-MEL
DMS-273 = system: DMS-273
SW-620 = system: SW-620
OVCAR-4 = system: OVCAR-4

COC(=O)[C@]1(C)C(OC)=CC(=O)C2C1[C@H]1CCC[C@@H]21 (some centres undefined)
GI50 (CCRF-CEM): > 100 µM (inactive)
GI50 (IGROV-1): > 100 µM (inactive)
GI50 (OVCAR-8): > 100 µM (inactive)
GI50 (HL-60): > 100 µM (inactive)
GI50 (LXFL 529): > 100 µM (inactive)
GI50 (NCI-H226): > 100 µM (inactive)
GI50 (HCT-15): > 100 µM
GI50 (CAKI-1): > 100 µM (inactive)
GI50 (NCI-H23): > 100 µM (inactive)
GI50 (U-251): > 100 µM (inactive)
GI50 (KM-20L2): > 100 µM (inactive)
GI50 (XF498): > 100 µM (inactive)
GI50 (SNB-75): > 100 µM (inactive)
GI50 (HOP-92): > 100 µM (inactive)
GI50 (SF-268): > 100 µM (inactive)
GI50 (KM12): > 100 µM (inactive)
GI50 (SK-MEL-5): > 100 µM (inactive)
GI50 (SNB-19): > 100 µM (inactive)
GI50 (A498): > 100 µM (inactive)
GI50 (SF-295): > 100 µM (inactive)
GI50 (K562): > 100 µM (inactive)
GI50 (UO-31): > 100 µM (inactive)
GI50 (NCI-H460): > 100 µM (inactive)
GI50 (OVCAR-5): > 100 µM (inactive)
GI50 (LOX IMVI): > 100 µM (inactive)
GI50 (HCC 2998): > 100 µM (inactive)
GI50 (TK-10): > 100 µM (inactive)
GI50 (MOLT-4): > 100 µM (inactive)
GI50 (Malme-3M): > 100 µM (inactive)
GI50 (OVCAR-3): > 100 µM (inactive)
GI50 (RPMI-8226): > 100 µM (inactive)
GI50 (COLO 205): > 100 µM (inactive)
GI50 (NCI-H522): > 100 µM (inactive)
GI50 (DLD-1): > 100 µM (inactive)
GI50 (SK-MEL-2): > 100 µM (inactive)
GI50 (DMS-114): > 100 µM (inactive)
GI50 (SK-OV-3): > 100 µM (inactive)
GI50 (EKVX): > 100 µM (inactive)
GI50 (UACC-62): > 100 µM (inactive)
GI50 (UACC-257): > 100 µM (inactive)
GI50 (SF-539): > 100 µM (inactive)
GI50 (HT-29): > 100 µM (inactive)
GI50 (RXF 393): > 100 µM (inactive)
GI50 (HOP-62): > 100 µM (inactive)
GI50 (ACHN): > 100 µM (inactive)
GI50 (A549): > 100 µM (inactive)
GI50 (SK-MEL-28): > 100 µM (inactive)
GI50 (M14): > 100 µM (inactive)
GI50 (HCT-116): > 100 µM (inactive)
GI50 (HOP-18): > 100 µM (inactive)
GI50 (SNB-78): > 100 µM (inactive)
GI50 (786-0): > 100 µM (inactive)
GI50 (SR): > 100 µM (inactive)
GI50 (SN12C): > 100 µM (inactive)
GI50 (M19-MEL): > 100 µM (inactive)

CN(C)CCN(C)CCC(=O)/C=C/c1ccccc1
GI50 (CCRF-CEM): 3.48 µM (inactive)
GI50 (IGROV-1): > 47.9 µM (inactive)
GI50 (OVCAR-8): 21.2 µM (inactive)
GI50 (HL-60): 16.4 µM (inactive)
GI50 (LXFL 529): 17.7 µM (inactive)
GI50 (NCI-H226): > 48.1 µM (inactive)
GI50 (HCT-15): 21.8 µM
GI50 (CAKI-1): 22.7 µM (inactive)
GI50 (NCI-H23): 27.1 µM (inactive)
GI50 (U-251): 57.7 µM (inactive)
GI50 (KM-20L2): 56.2 µM (inactive)
GI50 (XF498): 22.2 µM (inactive)
GI50 (SNB-75): > 41.5 µM (inactive)
GI50 (HOP-92): 25.5 µM (inactive)
GI50 (DMS-273): 17.4 µM (inactive)
GI50 (SF-268): 30.5 µM (inactive)
GI50 (KM12): 20.5 µM (inactive)
GI50 (SK-MEL-5): > 44.5 µM (inactive)
GI50 (SNB-19): > 93.3 µM (inactive)
GI50 (A498): > 89.9 µM (inactive)
GI50 (SF-295): > 40.4 µM (inactive)
GI50 (K562): 12.7 µM (inactive)
GI50 (UO-31): > 64.7 µM (inactive)
GI50 (SW-620): 18.5 µM (inactive)
GI50 (NCI-H460): > 100 µM (inactive)
GI50 (OVCAR-5): > 60.1 µM (inactive)
GI50 (LOX IMVI): 12.6 µM (inactive)
GI50 (HCC 2998): > 45.5 µM (inactive)
GI50 (TK-10): 25.9 µM (inactive)
GI50 (MOLT-4): 7.26 µM (inactive)
GI50 (Malme-3M): 18.4 µM (inactive)
GI50 (OVCAR-3): 27.7 µM (inactive)
GI50 (RPMI-8226): 2.16 µM (inactive)
GI50 (COLO 205): 18.7 µM (inactive)
GI50 (NCI-H522): 4.02 µM (inactive)
GI50 (DLD-1): 19.5 µM (inactive)
GI50 (SK-MEL-2): 39.2 µM (inactive)
GI50 (DMS-114): 30.2 µM (inactive)
GI50 (SK-OV-3): > 100 µM (inactive)
GI50 (EKVX): 32.1 µM (inactive)
GI50 (UACC-62): 25.4 µM (inactive)
GI50 (UACC-257): 22.2 µM (inactive)
GI50 (SF-539): 19.1 µM (inactive)
GI50 (HT-29): 20.8 µM (inactive)
GI50 (RXF 393): 21.3 µM (inactive)
GI50 (HOP-62): > 100 µM (inactive)
GI50 (ACHN): 29.5 µM (inactive)
GI50 (A549): > 71.6 µM (inactive)
GI50 (SK-MEL-28): 20.1 µM (inactive)
GI50 (M14): 20.9 µM (inactive)
GI50 (HCT-116): 17.1 µM (inactive)
GI50 (HOP-18): > 100 µM (inactive)
GI50 (SNB-78): 31 µM (inactive)
GI50 (OVCAR-4): 38.2 µM (inactive)
GI50 (786-0): 15.6 µM (inactive)
GI50 (SR): 7 µM (inactive)
GI50 (SN12C): 19 µM (inactive)
GI50 (M19-MEL): 20.2 µM (inactive)

CC(C)(Oc1ccc(C(=O)c2ccc(Cl)cc2)cc1Cl)C(=O)Nc1c(Cl)cccc1Cl
GI50 (CCRF-CEM): > 100 µM (inactive)
GI50 (IGROV-1): > 100 µM (inactive)
GI50 (OVCAR-8): > 100 µM (inactive)
GI50 (HL-60): 10.7 µM (inactive)
GI50 (LXFL 529): > 100 µM (inactive)
GI50 (HCT-15): > 100 µM
GI50 (CAKI-1): > 100 µM (inactive)
GI50 (NCI-H23): > 100 µM (inactive)
GI50 (U-251): > 100 µM (inactive)
GI50 (KM-20L2): > 100 µM (inactive)
GI50 (XF498): > 100 µM (inactive)
GI50 (HOP-92): > 100 µM (inactive)
GI50 (DMS-273): > 100 µM (inactive)
GI50 (SF-268): > 100 µM (inactive)
GI50 (KM12): > 100 µM (inactive)
GI50 (SK-MEL-5): 20 µM (inactive)
GI50 (SNB-19): > 100 µM (inactive)
GI50 (A498): > 100 µM (inactive)
GI50 (SF-295): > 100 µM (inactive)
GI50 (K562): 5.64 µM (inactive)
GI50 (UO-31): 23 µM (inactive)
GI50 (SW-620): > 100 µM (inactive)
GI50 (NCI-H460): 5.77 µM (inactive)
GI50 (OVCAR-5): > 100 µM (inactive)
GI50 (LOX IMVI): > 100 µM (inactive)
GI50 (TK-10): > 100 µM (inactive)
GI50 (MOLT-4): 67.9 µM (inactive)
GI50 (Malme-3M): > 100 µM (inactive)
GI50 (OVCAR-3): > 100 µM (inactive)
GI50 (RPMI-8226): > 100 µM (inactive)
GI50 (NCI-H522): 12.3 µM (inactive)
GI50 (DLD-1): > 100 µM (inactive)
GI50 (SK-MEL-2): > 100 µM (inactive)
GI50 (DMS-114): 8.75 µM (inactive)
GI50 (SK-OV-3): > 100 µM (inactive)
GI50 (EKVX): > 100 µM (inactive)
GI50 (UACC-62): > 100 µM (inactive)
GI50 (UACC-257): > 100 µM (inactive)
GI50 (SF-539): > 100 µM (inactive)
GI50 (HT-29): > 100 µM (inactive)
GI50 (RXF 393): < 0.01 µM (active)
GI50 (HOP-62): > 100 µM (inactive)
GI50 (A549): > 100 µM (inactive)
GI50 (SK-MEL-28): > 100 µM (inactive)
GI50 (M14): > 100 µM (inactive)
GI50 (HCT-116): > 100 µM (inactive)
GI50 (HOP-18): > 100 µM (inactive)
GI50 (SNB-78): > 100 µM (inactive)
GI50 (786-0): > 100 µM (inactive)
GI50 (SR): 9.75 µM (inactive)
GI50 (M19-MEL): > 100 µM (inactive)

— ChEMBL document CHEMBL1201862, “PubChem BioAssay data set” (2004)
